# Measurements: US12138256B2, “Treatment of cardiopulmonary disorders” (Bayer Aktiengesellschaft, priority 2021, dated 2024)
# Test system: sGC (cGMP)
# Assay: Phase I, healthy male subjects, 7 days once daily inhalation: cGMP in blood samples (C-4.1)
# Format: in vivo, human
# Conditions: for time of cGMP peak after administration: first inhalation; for mean peak cGMP: after repeated dosing for 7 days; for peak mean±SD cGMP: first profile day
# Description: Healthy White male subjects, aged 18 to 45 years and with a body mass index (BMI) above/equal 18.5 and below/equal 29.9 kg/m2 were treated in a clinical pharmacological phase I study on seven days with inhaled once daily doses of 480 μg or 1000 μg or 2000 μg (2 capsules of 1000 μg) (nominal dose) of dry powder formulations of example 2 or Placebo. The subjects inhaled the drug powder from capsules (see under D-1, e.g. tables 22 and 23) inserted into a handheld inhalation device by one deep inhalative breath. The dry powder formulation of the drug is dispersed into the airstream and fine particles are transported into the deep parts of the lung where it is intended to cause a vasodilation of the blood vessels in PH patients for a substantial reduction of increased blood pressure in the central pulmonary blood vessels in PAH patients or other subtypes of PH. This effect cannot be shown in subjects with healthy lungs. In addition inhaled drug causes a dilation of the bronchial airways and thus also improves disease states of lung diseases in PH patients with pathological bronchoconstriction. This effect was measured via bodyplethysmography as reduction of Specific Airway Resistance in healthy subjects. After the deep inhalative breath the subjects hold breath for 2 seconds, so that the dry powder drug condenses from the airstream onto the surface of the deeper lung areas where it is deposited close to its site of intended pharmacological action. The drug dissolutes over the day and equilibrates the lung via lining fluid.
# Drug activity in healthy men was controlled in the healthy subjects by analysing blood samples for cGMP, the immediate product of sGC pharmacological activation prior after the first and after the last drug inhalation of the 7 days treatment in comparison to measurements on the pretreatment day for all doses.
# This prolonged activity in comparison to systemic drug concentration is caused by the mode of administration as inhaled dry powder, that deposits drug in the deeper part of the lung leading to an active drug concentration over 24 h after a once daily inhalation.
# At 10 days after the first treatment, mean cGMP concentrations had returned close to the concentration observed at the pre-dosing day.
smiles,measurement,setting,value
"O=C(O)c1ccc(CCN(CCc2ccccc2OCc2ccc(-c3ccc(C(F)(F)F)cc3)cc2Cl)[C@H]2CCCc3nc(C(=O)O)ccc32)cc1 [example 2, (5S)-{[2-(4-Carboxyphenyl)ethyl][2-(2-{[3-chloro-4′-(trifluoromethyl)biphenyl-4-yl]methoxy}phenyl)-ethyl]amino}-5,6,7,8-tetrahydroquinoline-2-carboxylic acid]","cGMP, mean ± SD","1000 μg, 5 D 00 H 00 M (trough)",8.50 ± 2.13 nmol/L
same,"cGMP, mean ± SD","1000 μg, 6 D 00 H 00 M (trough)",9.23 ± 2.12 nmol/L
same,"cGMP, mean ± SD","1000 μg, 7 D 00 H 00 M (trough)",9.66 ± 2.30 nmol/L
same,"cGMP, mean ± SD","1000 μg, 7 D 02 H 00 M",11.84 ± 2.18 nmol/L
same,"cGMP, mean ± SD","1000 μg, 7 D 04 H 00 M",15.76 ± 2.29 nmol/L
same,"cGMP, mean ± SD","1000 μg, 7 D 06 H 00 M",16.70 ± 2.96 nmol/L
same,"cGMP, mean ± SD","1000 μg, 7 D 08 H 00 M",15.91 ± 3.86 nmol/L
same,"cGMP, mean ± SD","1000 μg, 7 D 12 H 00 M",14.10 ± 4.55 nmol/L
same,"cGMP, mean ± SD","1000 μg, 7 D 15 H 00 M",12.91 ± 3.72 nmol/L
same,"cGMP, mean ± SD","1000 μg, 8 D 00 H 00 M",9.38 ± 3.11 nmol/L
same,"cGMP, mean ± SD","1000 μg, 8 D 12 H 00 M",7.21 ± 2.24 nmol/L
same,"cGMP, mean ± SD","1000 μg, 9 D 00 H 00 M",6.29 ± 1.86 nmol/L
same,"cGMP, mean ± SD","1000 μg, 9 D 12 H 00 M",5.93 ± 1.39 nmol/L
same,"cGMP, mean ± SD","1000 μg, 10 D 00 H 00 M",6.33 ± 2.30 nmol/L
same,"cGMP, mean ± SD","1000 μg, −0 D 09 H 00 M (baseline)",4.18 ± 0.82 nmol/L
same,cyclic guanosine monophosphate changes from baseline,"1000 μg, −0 D 09 H 00 M (pretreatment day)",-0.84 ± 2.04 nmol/L
same,"cGMP, mean ± SD","1000 μg, −0 D 12 H 00 M (baseline)",4.26 ± 0.99 nmol/L
same,cyclic guanosine monophosphate changes from baseline,"1000 μg, −0 D 12 H 00 M (pretreatment day)",-0.77 ± 1.72 nmol/L
same,"cGMP, mean ± SD","1000 μg, −0 D 16 H 00 M (baseline)",4.59 ± 1.06 nmol/L
same,cyclic guanosine monophosphate changes from baseline,"1000 μg, −0 D 16 H 00 M (pretreatment day)",-0.43 ± 1.49 nmol/L
same,"cGMP, mean ± SD","1000 μg, −0 D 18 H 00 M (baseline)",4.16 ± 0.92 nmol/L
same,cyclic guanosine monophosphate changes from baseline,"1000 μg, −0 D 18 H 00 M (pretreatment day)",-0.87 ± 1.44 nmol/L
same,"cGMP, mean ± SD","1000 μg, −0 D 20 H 00 M (baseline)",4.78 ± 1.37 nmol/L
same,cyclic guanosine monophosphate changes from baseline,"1000 μg, −0 D 20 H 00 M (pretreatment day)",-0.24 ± 1.75 nmol/L
same,"cGMP, mean ± SD","1000 μg, −0 D 22 H 00 M (baseline)",5.10 ± 1.46 nmol/L
same,cyclic guanosine monophosphate changes from baseline,"1000 μg, −0 D 22 H 00 M (pretreatment day)",0.08 ± 1.41 nmol/L
same,"cGMP, mean ± SD","1000 μg, −1 D 02 H 00 M (baseline)",5.02 ± 1.59 nmol/L
same,time of cGMP peak after administration,2000 μg dose,8 h
same,cyclic guanosine monophosphate changes from baseline,"2000 μg once daily inhaled, 0 D 02 H 00 M",4.78 ± 1.35 nmol/L
same,cyclic guanosine monophosphate changes from baseline,"2000 μg once daily inhaled, 0 D 04 H 00 M",9.18 ± 2.50 nmol/L
same,cyclic guanosine monophosphate changes from baseline,"2000 μg once daily inhaled, 0 D 06 H 00 M",11.04 ± 3.21 nmol/L
same,cyclic guanosine monophosphate changes from baseline,"2000 μg once daily inhaled, 0 D 08 H 00 M",11.69 ± 2.78 nmol/L
same,cyclic guanosine monophosphate changes from baseline,"2000 μg once daily inhaled, 0 D 12 H 00 M",8.56 ± 2.19 nmol/L
same,cyclic guanosine monophosphate changes from baseline,"2000 μg once daily inhaled, 0 D 15 H 00 M",7.54 ± 2.32 nmol/L
same,cyclic guanosine monophosphate changes from baseline,"2000 μg once daily inhaled, 1 D 00 H 00 M",3.48 ± 0.90 nmol/L
same,cyclic guanosine monophosphate changes from baseline,"2000 μg once daily inhaled, 2 D 00 H 00 M",1.57 ± 0.86 nmol/L
same,cyclic guanosine monophosphate changes from baseline,"2000 μg once daily inhaled, 3 D 00 H 00 M",5.17 ± 1.51 nmol/L
same,cyclic guanosine monophosphate changes from baseline,"2000 μg once daily inhaled, 4 D 00 H 00 M",9.33 ± 2.55 nmol/L
same,cyclic guanosine monophosphate changes from baseline,"2000 μg once daily inhaled, 5 D 00 H 00 M",11.10 ± 3.49 nmol/L
same,cyclic guanosine monophosphate changes from baseline,"2000 μg once daily inhaled, 6 D 00 H 00 M",11.71 ± 2.66 nmol/L
same,cyclic guanosine monophosphate changes from baseline,"2000 μg once daily inhaled, 7 D 00 H 00 M",11.36 ± 3.37 nmol/L
same,cyclic guanosine monophosphate changes from baseline,"2000 μg once daily inhaled, 7 D 02 H 00 M",17.33 ± 4.18 nmol/L
same,cyclic guanosine monophosphate changes from baseline,"2000 μg once daily inhaled, 7 D 04 H 00 M",22.23 ± 4.75 nmol/L
same,cyclic guanosine monophosphate changes from baseline,"2000 μg once daily inhaled, 7 D 06 H 00 M",27.39 ± 6.93 nmol/L
same,cyclic guanosine monophosphate changes from baseline,"2000 μg once daily inhaled, 7 D 08 H 00 M",27.83 ± 7.77 nmol/L
same,cyclic guanosine monophosphate changes from baseline,"2000 μg once daily inhaled, 7 D 12 H 00 M",23.33 ± 5.53 nmol/L
same,cyclic guanosine monophosphate changes from baseline,"2000 μg once daily inhaled, 7 D 15 H 00 M",19.08 ± 4.95 nmol/L
same,cyclic guanosine monophosphate changes from baseline,"2000 μg once daily inhaled, 8 D 00 H 00 M",11.17 ± 3.69 nmol/L
same,cyclic guanosine monophosphate changes from baseline,"2000 μg once daily inhaled, 8 D 12 H 00 M",8.02 ± 2.45 nmol/L
same,cyclic guanosine monophosphate changes from baseline,"2000 μg once daily inhaled, 9 D 00 H 00 M",5.64 ± 1.36 nmol/L
same,cyclic guanosine monophosphate changes from baseline,"2000 μg once daily inhaled, 9 D 12 H 00 M",4.57 ± 2.15 nmol/L
same,cyclic guanosine monophosphate changes from baseline,"2000 μg once daily inhaled, 10 D 00 H 00 M",3.26 ± 1.07 nmol/L
same,cyclic guanosine monophosphate changes from baseline,"2000 μg, 0 D 00 H 00 M",0.68 ± 1.14 nmol/L
same,"cGMP, mean ± SD","2000 μg, 0 D 00 H 00 M (baseline)",4.83 ± 2.52 nmol/L
same,"cGMP, mean ± SD","2000 μg, 0 D 02 H 00 M",9.61 ± 3.65 nmol/L
same,"cGMP, mean ± SD","2000 μg, 0 D 04 H 00 M",14.01 ± 4.51 nmol/L
same,"cGMP, mean ± SD","2000 μg, 0 D 06 H 00 M",15.88 ± 5.09 nmol/L
same,"cGMP, mean ± SD","2000 μg, 0 D 08 H 00 M",16.52 ± 4.24 nmol/L
same,"cGMP, mean ± SD","2000 μg, 0 D 12 H 00 M",13.39 ± 4.01 nmol/L
same,"cGMP, mean ± SD","2000 μg, 0 D 15 H 00 M",12.38 ± 4.17 nmol/L
same,"cGMP, mean ± SD","2000 μg, 1 D 00 H 00 M",8.31 ± 2.88 nmol/L
same,"cGMP, mean ± SD","2000 μg, 2 D 00 H 00 M",6.40 ± 2.09 nmol/L
same,"cGMP, mean ± SD","2000 μg, 3 D 00 H 00 M (trough)",10.00 ± 3.51 nmol/L
same,"cGMP, mean ± SD","2000 μg, 4 D 00 H 00 M (trough)",14.17 ± 4.36 nmol/L
same,"cGMP, mean ± SD","2000 μg, 5 D 00 H 00 M (trough)",15.93 ± 5.52 nmol/L
same,"cGMP, mean ± SD","2000 μg, 6 D 00 H 00 M (trough)",16.54 ± 4.60 nmol/L
same,"cGMP, mean ± SD","2000 μg, 7 D 00 H 00 M (trough)",16.19 ± 5.02 nmol/L
same,"cGMP, mean ± SD","2000 μg, 7 D 02 H 00 M",22.17 ± 6.07 nmol/L
same,"cGMP, mean ± SD","2000 μg, 7 D 04 H 00 M",27.07 ± 7.01 nmol/L
same,"cGMP, mean ± SD","2000 μg, 7 D 06 H 00 M",32.22 ± 8.83 nmol/L
same,"cGMP, mean ± SD","2000 μg, 7 D 08 H 00 M",32.67 ± 9.48 nmol/L
same,"cGMP, mean ± SD","2000 μg, 7 D 12 H 00 M",28.17 ± 7.50 nmol/L
same,"cGMP, mean ± SD","2000 μg, 7 D 15 H 00 M",23.91 ± 6.59 nmol/L
same,"cGMP, mean ± SD","2000 μg, 8 D 00 H 00 M",16.00 ± 5.77 nmol/L
same,"cGMP, mean ± SD","2000 μg, 8 D 12 H 00 M",12.86 ± 3.96 nmol/L
same,"cGMP, mean ± SD","2000 μg, 9 D 00 H 00 M",10.48 ± 3.49 nmol/L
same,"cGMP, mean ± SD","2000 μg, 9 D 12 H 00 M",9.40 ± 3.10 nmol/L
same,"cGMP, mean ± SD","2000 μg, 10 D 00 H 00 M",8.09 ± 2.81 nmol/L
same,"cGMP, mean ± SD","2000 μg, −0 D 09 H 00 M (baseline)",3.98 ± 1.91 nmol/L
same,cyclic guanosine monophosphate changes from baseline,"2000 μg, −0 D 09 H 00 M (pretreatment day)",-0.18 ± 0.90 nmol/L
same,"cGMP, mean ± SD","2000 μg, −0 D 12 H 00 M (baseline)",4.43 ± 2.24 nmol/L
same,cyclic guanosine monophosphate changes from baseline,"2000 μg, −0 D 12 H 00 M (pretreatment day)",0.28 ± 0.97 nmol/L
same,"cGMP, mean ± SD","2000 μg, −0 D 16 H 00 M (baseline)",4.44 ± 2.15 nmol/L
same,cyclic guanosine monophosphate changes from baseline,"2000 μg, −0 D 16 H 00 M (pretreatment day)",0.29 ± 1.17 nmol/L
same,"cGMP, mean ± SD","2000 μg, −0 D 18 H 00 M (baseline)",4.32 ± 1.33 nmol/L
same,cyclic guanosine monophosphate changes from baseline,"2000 μg, −0 D 18 H 00 M (pretreatment day)",0.17 ± 0.78 nmol/L
same,"cGMP, mean ± SD","2000 μg, −0 D 20 H 00 M (baseline)",4.63 ± 1.86 nmol/L
same,cyclic guanosine monophosphate changes from baseline,"2000 μg, −0 D 20 H 00 M (pretreatment day)",0.48 ± 0.71 nmol/L
same,"cGMP, mean ± SD","2000 μg, −0 D 22 H 00 M (baseline)",4.81 ± 2.22 nmol/L
same,cyclic guanosine monophosphate changes from baseline,"2000 μg, −0 D 22 H 00 M (pretreatment day)",0.66 ± 0.79 nmol/L
same,"cGMP, mean ± SD","2000 μg, −1 D 02 H 00 M (baseline)",4.16 ± 1.70 nmol/L
same,start of cGMP increase after first inhalation,"480, 1000, 2000 μg",approximately 2 h
same,time of cGMP peak after administration,480 and 1000 μg dose,6 h
same,mean peak cGMP,480 μg,11.96 ± 2.80 nmol/L
same,mean peak cGMP,1000 μg,16.70 ± 2.96 nmol/L
same,mean peak cGMP,2000 μg,32.67 ± 9.48 nmol/L
same,peak mean±SD cGMP,480 μg,8.84 ± 1.35 nmol/L
same,peak mean±SD cGMP,1000 μg,11.69 ± 1.86 nmol/L
same,peak mean±SD cGMP,2000 μg,16.52 ± 4.24 nmol/L
